Like-named read-outs stand apart in the source and are kept apart here.

The test system of assay [1] is human tumor xenograft models. The note with it: cited from earlier work.
The subject of assay [2] is LNCap. Briefly: In vitro cell growth assay (MTS), LNCap. It counts as cell-based. To be noted: LNCaP, 72 h, human prostate line, three days after drug treatment.
Assay [3] addresses mTOR (Homo sapiens, UniProt P42345). The assay is described as follows: mTOR enzyme assay (DELFIA, purified FLAG-TOR, His6-S6K substrate). It counts as biochemical. More on the design: FLAG. The note with it: 100 μM ATP, 2 hours.
Assay [4] concerns the target PI3K-gamma (Homo sapiens, UniProt P48736). The assay is described as follows: PI3K-gamma fluorescence polarization assay. To be noted: 20 μM PIP2, 25 μM ATP; read-out: PI3Kγ IC50. Type of assay: biochemical. Summed up: (§1)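 PIP2 (diC8) and ATP substrate with PI3K in 20 mM HEPES pH 7.5, 2 mM MgCl2, 0.05% CHAPS, 0.01% βME; 1% DMSO final; 30–60 min reaction. Stopped with EDTA plus GST-GRP (70 nM) and TAMRA probe (10 nM); FP (mP) read after 30–90 min, with no-enzyme controls.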
For orientation: Polarisation of emitted light reports the rotation of a fluorescent probe.

Assay [5] deals with MDA468. Briefly: In vitro cell growth assay (MTS), MDA468. It counts as cell-based. The note with it: 72 h, human breast line MDA468, three days after drug treatment, read-out: MDA IC50.
Assay [6] deals with PI3K-alpha (Homo sapiens, UniProt P42336). The assay is described as follows: PI3K-alpha fluorescence polarization assay. It counts as biochemical. To be noted: 20 μM PIP2, 25 μM ATP; read-out: PI3Kα IC50. In short, it runs like this:
as §1

Sequence of PI3K-gamma (P48736 whole entry, species assumed): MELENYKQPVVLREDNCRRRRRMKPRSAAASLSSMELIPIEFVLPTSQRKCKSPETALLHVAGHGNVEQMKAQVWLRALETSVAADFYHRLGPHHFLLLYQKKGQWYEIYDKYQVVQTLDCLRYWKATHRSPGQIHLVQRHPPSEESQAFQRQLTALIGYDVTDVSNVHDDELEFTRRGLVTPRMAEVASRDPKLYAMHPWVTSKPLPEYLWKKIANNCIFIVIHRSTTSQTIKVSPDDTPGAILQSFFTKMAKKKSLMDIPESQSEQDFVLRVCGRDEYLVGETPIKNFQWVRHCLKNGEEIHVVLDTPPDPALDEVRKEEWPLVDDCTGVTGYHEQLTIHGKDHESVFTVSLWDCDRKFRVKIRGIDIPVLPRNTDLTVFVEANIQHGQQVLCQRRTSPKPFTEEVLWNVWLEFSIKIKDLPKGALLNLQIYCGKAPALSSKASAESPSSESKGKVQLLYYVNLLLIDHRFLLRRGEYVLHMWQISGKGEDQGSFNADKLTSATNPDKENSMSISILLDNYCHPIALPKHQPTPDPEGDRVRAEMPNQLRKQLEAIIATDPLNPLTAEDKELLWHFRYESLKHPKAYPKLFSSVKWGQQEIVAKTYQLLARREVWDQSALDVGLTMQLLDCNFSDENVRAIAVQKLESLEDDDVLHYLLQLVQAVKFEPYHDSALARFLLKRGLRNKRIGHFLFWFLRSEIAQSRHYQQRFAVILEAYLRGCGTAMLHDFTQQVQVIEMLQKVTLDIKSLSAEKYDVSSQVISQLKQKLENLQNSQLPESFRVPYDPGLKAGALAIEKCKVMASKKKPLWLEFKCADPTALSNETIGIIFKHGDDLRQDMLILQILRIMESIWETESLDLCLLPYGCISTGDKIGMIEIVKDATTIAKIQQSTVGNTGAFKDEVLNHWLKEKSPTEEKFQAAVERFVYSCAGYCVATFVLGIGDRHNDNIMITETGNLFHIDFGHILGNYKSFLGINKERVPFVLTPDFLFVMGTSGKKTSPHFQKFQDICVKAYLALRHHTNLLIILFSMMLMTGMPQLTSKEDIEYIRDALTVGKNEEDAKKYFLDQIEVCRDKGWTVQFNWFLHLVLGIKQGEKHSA
Sequence of mTOR (P42345 1360-2549 limits assumed): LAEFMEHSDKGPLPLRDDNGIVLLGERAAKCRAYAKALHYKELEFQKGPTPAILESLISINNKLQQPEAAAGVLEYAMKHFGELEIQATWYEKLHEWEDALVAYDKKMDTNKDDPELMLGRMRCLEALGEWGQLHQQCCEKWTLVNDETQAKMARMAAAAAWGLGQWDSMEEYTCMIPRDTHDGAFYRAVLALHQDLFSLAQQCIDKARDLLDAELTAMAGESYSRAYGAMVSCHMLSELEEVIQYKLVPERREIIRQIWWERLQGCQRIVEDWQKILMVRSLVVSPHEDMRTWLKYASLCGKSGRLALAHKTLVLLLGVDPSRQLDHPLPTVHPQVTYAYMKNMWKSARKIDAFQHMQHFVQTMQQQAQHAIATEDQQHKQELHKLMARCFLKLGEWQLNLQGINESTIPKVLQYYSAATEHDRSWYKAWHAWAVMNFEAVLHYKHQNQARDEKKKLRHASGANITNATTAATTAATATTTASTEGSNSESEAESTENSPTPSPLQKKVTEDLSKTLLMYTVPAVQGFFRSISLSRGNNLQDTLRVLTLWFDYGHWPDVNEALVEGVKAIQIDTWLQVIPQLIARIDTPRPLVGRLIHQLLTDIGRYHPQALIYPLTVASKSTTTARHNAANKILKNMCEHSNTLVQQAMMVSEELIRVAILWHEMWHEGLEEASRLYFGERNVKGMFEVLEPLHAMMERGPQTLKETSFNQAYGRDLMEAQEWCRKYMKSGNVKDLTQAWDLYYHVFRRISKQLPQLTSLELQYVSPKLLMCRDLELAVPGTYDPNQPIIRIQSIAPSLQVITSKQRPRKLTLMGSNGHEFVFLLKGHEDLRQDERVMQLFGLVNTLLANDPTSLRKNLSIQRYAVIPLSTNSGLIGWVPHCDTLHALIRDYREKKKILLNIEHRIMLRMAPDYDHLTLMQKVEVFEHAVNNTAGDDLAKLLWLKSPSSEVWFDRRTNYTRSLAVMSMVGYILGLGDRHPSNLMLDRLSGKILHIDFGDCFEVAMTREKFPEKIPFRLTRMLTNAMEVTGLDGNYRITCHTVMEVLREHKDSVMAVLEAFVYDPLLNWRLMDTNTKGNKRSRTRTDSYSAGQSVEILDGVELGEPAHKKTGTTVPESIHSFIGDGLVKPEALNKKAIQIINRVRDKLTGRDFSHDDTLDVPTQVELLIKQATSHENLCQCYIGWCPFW
Sequence of PI3K-alpha (P42336 whole entry, species assumed): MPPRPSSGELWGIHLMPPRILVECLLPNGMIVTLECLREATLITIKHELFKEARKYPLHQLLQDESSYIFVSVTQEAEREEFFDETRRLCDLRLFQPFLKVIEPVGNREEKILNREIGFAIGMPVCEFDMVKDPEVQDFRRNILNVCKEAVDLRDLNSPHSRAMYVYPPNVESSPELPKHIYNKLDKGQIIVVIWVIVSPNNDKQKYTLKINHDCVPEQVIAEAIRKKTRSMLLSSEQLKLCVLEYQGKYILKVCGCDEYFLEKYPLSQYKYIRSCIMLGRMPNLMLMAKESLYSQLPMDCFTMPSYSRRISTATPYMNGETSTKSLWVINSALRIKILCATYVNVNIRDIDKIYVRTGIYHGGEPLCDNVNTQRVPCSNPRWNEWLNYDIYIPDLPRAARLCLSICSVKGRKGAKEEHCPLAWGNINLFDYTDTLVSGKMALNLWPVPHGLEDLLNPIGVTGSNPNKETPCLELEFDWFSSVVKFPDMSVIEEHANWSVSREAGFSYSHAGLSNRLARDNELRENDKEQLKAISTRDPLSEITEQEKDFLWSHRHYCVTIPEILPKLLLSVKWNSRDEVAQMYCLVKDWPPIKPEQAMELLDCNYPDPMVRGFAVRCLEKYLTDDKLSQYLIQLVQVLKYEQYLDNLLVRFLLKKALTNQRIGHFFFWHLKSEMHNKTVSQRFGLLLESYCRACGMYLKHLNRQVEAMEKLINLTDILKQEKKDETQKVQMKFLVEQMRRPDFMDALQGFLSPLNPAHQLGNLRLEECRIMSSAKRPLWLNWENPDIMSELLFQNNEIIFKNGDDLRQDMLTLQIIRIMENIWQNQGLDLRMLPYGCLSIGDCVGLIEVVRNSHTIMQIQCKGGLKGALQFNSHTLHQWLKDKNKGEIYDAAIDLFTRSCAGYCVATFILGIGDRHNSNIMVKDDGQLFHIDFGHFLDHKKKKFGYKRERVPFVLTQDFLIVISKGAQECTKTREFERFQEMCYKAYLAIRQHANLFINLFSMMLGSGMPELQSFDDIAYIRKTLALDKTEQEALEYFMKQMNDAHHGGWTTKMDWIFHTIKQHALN
Sequence of PI3K-alpha (P27986 whole entry partner, species assumed): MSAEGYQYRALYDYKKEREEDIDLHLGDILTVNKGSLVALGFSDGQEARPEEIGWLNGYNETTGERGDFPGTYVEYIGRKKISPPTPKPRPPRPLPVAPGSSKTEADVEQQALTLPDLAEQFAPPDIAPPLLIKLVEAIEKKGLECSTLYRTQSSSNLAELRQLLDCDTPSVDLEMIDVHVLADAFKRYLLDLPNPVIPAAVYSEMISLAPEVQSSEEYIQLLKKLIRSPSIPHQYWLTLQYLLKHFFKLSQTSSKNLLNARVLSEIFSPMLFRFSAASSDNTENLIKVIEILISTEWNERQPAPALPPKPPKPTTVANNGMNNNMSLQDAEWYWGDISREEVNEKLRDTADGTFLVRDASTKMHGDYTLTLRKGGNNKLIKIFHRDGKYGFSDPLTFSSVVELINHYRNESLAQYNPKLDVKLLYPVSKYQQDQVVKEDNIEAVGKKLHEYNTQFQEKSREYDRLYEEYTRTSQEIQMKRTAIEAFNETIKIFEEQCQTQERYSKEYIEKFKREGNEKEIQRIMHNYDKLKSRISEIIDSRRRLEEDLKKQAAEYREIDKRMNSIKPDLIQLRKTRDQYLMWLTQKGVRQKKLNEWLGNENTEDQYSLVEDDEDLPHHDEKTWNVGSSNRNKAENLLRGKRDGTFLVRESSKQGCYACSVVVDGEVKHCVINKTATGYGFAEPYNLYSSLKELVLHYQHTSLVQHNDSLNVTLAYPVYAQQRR

With `Cn1c(=O)n(-c2ccc(C(C)(C)C#N)cc2)c2c3cc(-c4cnc5ccccc5c4)ccc3ncc21` [NVP-BEZ-235, 2-methyl-2-(4-(3-methyl-2-oxo-8-(quinolin-3-yl)-2,3-dihydro-1H-imidazo[4,5-c]quinolin-1-yl)phenyl)propanenitrile], the “activity against human tumor models” value in assay [1] (PC-3 and U-87 xenografts) is recorded as “demonstrated activity”.

One may read the IC50 as the concentration needed to halve the response being measured. For the compound `CC(C)N1CCN(C(=O)c2ccc(NC(=O)Nc3ccc(-c4nc(N5C[C@@H](C)O[C@@H](C)C5)cc(N5C6CCC5COC6)n4)cc3)cc2)CC1` [1-(4-{4-[(2R,6S)-2,6-dimethylmorpholin-4-yl]-6-(3-oxa-8-azabicyclo[3.2.1]oct-8-yl)pyrimidin-2-yl}phenyl)-3-(4-{[4-(1-methylethyl)piperazin-1-yl]carbonyl}phenyl)urea], the IC50 was no more than 0.8 nM in assay [2]; 2.7 nM in assay [3]; 915 nM in assay [4]; 0.8 nM in assay [5]; 293 nM in assay [6].

For `CS(=O)(=O)CCNc1cc(N2C3CCC2COC3)nc(-c2ccc(NC(=O)Nc3ccncc3)cc2)n1` [1-{4-[4-{[2-(methylsulfonyl)ethyl]amino}-6-(3-oxa-8-azabicyclo[3.2.1]oct-8-yl)pyrimidin-2-yl]phenyl}-3-pyridin-4-ylurea], the IC50 in assay [2] amounted to 1000 nM; in assay [3], 4.05 nM; in assay [4] it was 10800 nM; in assay [5], 400 nM; in assay [6], 1300 nM.

On to `CN(C)CCOc1ccc(NC(=O)Nc2ccc(-c3nc(NCCS(C)(=O)=O)cc(N4C5CCC4COC5)n3)cc2)cc1` [1-{4-[2-(dimethylamino)ethoxy]phenyl}-3-{4-[4-{[2-(methylsulfonyl)ethyl]amino}-6-(3-oxa-8-azabicyclo[3.2.1]oct-8-yl)pyrimidin-2-yl]phenyl}urea], for which the IC50 in assay [2] is 480 nM; in assay [3] it was 26 nM; in assay [4], no less than 10000 nM; in assay [5] it was 420 nM; in assay [6], 1860 nM.

On to `CC(C)N1CCN(C(=O)c2ccc(NC(=O)Nc3ccc(-c4nc(C5CCOCC5)cc(N5C6CCC5COC6)n4)cc3)cc2)CC1` [1-(4-{[4-(1-methylethyl)piperazin-1-yl]carbonyl}phenyl)-3-{4-[4-(3-oxa-8-azabicyclo[3.2.1]oct-8-yl)-6-(tetrahydro-2H-pyran-4-yl)pyrimidin-2-yl]phenyl}urea], for which the IC50 in assay [2] was no more than 0.8 nM; in assay [3], 0.295 nM; in assay [4], 3210 nM; in assay [5], 0.8 nM; in assay [6], 353 nM.

On to `CN1CCN(Cc2ccc(NC(=O)Nc3ccc(-c4nc(NC5CCOCC5)cc(N5C6CCC5COC6)n4)cc3)cc2)CC1` [1-{4-[(4-methylpiperazin-1-yl)methyl]phenyl}-3-{4-[4-(3-oxa-8-azabicyclo[3.2.1]oct-8-yl)-6-(tetrahydro-2H-pyran-4-ylamino)pyrimidin-2-yl]phenyl}urea], for which the IC50 in assay [2] was 40 nM; in assay [3] it was 6.3 nM; in assay [4], 2180 nM; in assay [5], 65 nM; in assay [6], 931 nM.

Regarding `CC(C)Nc1cc(N2C3COCC2COC3)nc(-c2ccc(NC(=O)Nc3ccc(N4CCN(C)CC4)cc3)cc2)n1` [1-{4-[4-(3,7-dioxa-9-azabicyclo[3.3.1]non-9-yl)-6-(isopropylamino)pyrimidin-2-yl]phenyl}-3-[4-(4-methylpiperazin-1-yl)phenyl]urea], the IC50 in assay [2] is 280 nM; in assay [3], 14.5 nM; in assay [4] it was 7890 nM; in assay [5] it was 320 nM; in assay [6], 1510 nM.

For `C[C@@H]1CN(c2cc(N3C4CCC3COC4)nc(-c3ccc(NC(=O)Nc4ccc(N5CCN(C)CC5)nc4)cc3)n2)C[C@H](C)O1` [1-(4-{4-[(2R,6S)-2,6-dimethylmorpholin-4-yl]-6-(3-oxa-8-azabicyclo[3.2.1]oct-8-yl)pyrimidin-2-yl}phenyl)-3-[6-(4-methylpiperazin-1-yl)pyridin-3-yl]urea], the IC50 in assay [2] is 100 nM; in assay [3], 15.2 nM; in assay [4], 15300 nM; in assay [5], 200 nM; in assay [6], 1690 nM.

On to `CN(C)CCOc1ccc(NC(=O)Nc2ccc(-c3nc(C4CCOCC4)cc(N4C5CCC4COC5)n3)cc2)cc1` [1-{4-[2-(dimethylamino)ethoxy]phenyl}-3-{4-[4-(3-oxa-8-azabicyclo[3.2.1]oct-8-yl)-6-(tetrahydro-2H-pyran-4-yl)pyrimidin-2-yl]phenyl}urea], for which the IC50 was determined as 4 nM in assay [2]; 1.15 nM in assay [3]; 7300 nM in assay [4]; 11 nM in assay [5]; 1460 nM in assay [6].

Consider `CN1CCN(Cc2ccc(NC(=O)Nc3ccc(-c4nc(N5C6CCC5COC6)cc(N5C[C@H]6C[C@@H]5CO6)n4)cc3)cc2)CC1` [1-{4-[(4-methylpiperazin-1-yl)methyl]phenyl}-3-(4-{4-[(1R,4R)-2-oxa-5-azabicyclo[2.2.1]hept-5-yl]-6-(3-oxa-8-azabicyclo[3.2.1]oct-8-yl)pyrimidin-2-yl}phenyl)urea], for which the IC50 in assay [2] was found to be 180 nM; in assay [3], 9.9 nM; in assay [4], 7590 nM; in assay [5], 190 nM; in assay [6], 1190 nM.

`O=C(Nc1ccncc1)Nc1ccc(-c2nc(C3CCOCC3)cc(N3C4CCC3COC4)n2)cc1` [1-{4-[4-(3-oxa-8-azabicyclo[3.2.1]oct-8-yl)-6-(tetrahydro-2H-pyran-4-yl)pyrimidin-2-yl]phenyl}-3-pyridin-4-ylurea]: the concentration for half-maximal inhibition (IC50) in assay [2] was no more than 0.8 nM; in assay [3], 0.365 nM; in assay [4] it was 7980 nM; in assay [5], 4 nM; in assay [6], 1780 nM.

Take `CN(C)Cc1cc(N2C3CCC2COC3)nc(-c2ccc(NC(=O)Nc3cccnc3)cc2)n1` [1-(4-{4-[(dimethylamino)methyl]-6-(3-oxa-8-azabicyclo[3.2.1]oct-8-yl)pyrimidin-2-yl}phenyl)-3-pyridin-3-ylurea]: the IC50 was 600 nM in assay [2]; 10.8 nM in assay [3]; greater than 10000 nM in assay [4]; 1000 nM in assay [5]; 3160 nM in assay [6].

For `CN1CCN(c2ccc(NC(=O)Nc3ccc(-c4nc(N5C6CCC5COC6)cc(N5C[C@@H]6C[C@H]5CO6)n4)cc3)cc2)CC1` [1-[4-(4-methylpiperazin-1-yl)phenyl]-3-(4-{4-[(1S,4S)-2-oxa-5-azabicyclo[2.2.1]hept-5-yl]-6-(3-oxa-8-azabicyclo[3.2.1]oct-8-yl)pyrimidin-2-yl}phenyl)urea], the IC50 was 10 nM in assay [2]; 9.75 nM in assay [3]; no less than 10000 nM in assay [4]; 18 nM in assay [5]; 1780 nM in assay [6].

Take `CN(C)CCOc1ccc(NC(=O)Nc2ccc(-c3nc(NC4CCOCC4)cc(N4C5CCC4COC5)n3)cc2)cc1` [1-{4-[2-(dimethylamino)ethoxy]phenyl}-3-{4-[4-(3-oxa-8-azabicyclo[3.2.1]oct-8-yl)-6-(tetrahydro-2H-pyran-4-ylamino)pyrimidin-2-yl]phenyl}urea]: the IC50 in assay [2] came out at 30 nM; in assay [3], 7.6 nM; in assay [4] it was 4540 nM; in assay [5] it was 48 nM; in assay [6], 1110 nM.

In the case of `O=C(Nc1ccncc1)Nc1ccc(-c2nc(N3C4CCC3COC4)cc(N3C[C@@H]4C[C@H]3CO4)n2)cc1` [1-(4-{4-[(1S,4S)-2-oxa-5-azabicyclo[2.2.1]hept-5-yl]-6-(3-oxa-8-azabicyclo[3.2.1]oct-8-yl)pyrimidin-2-yl}phenyl)-3-pyridin-4-ylurea], the IC50 is 30 nM in assay [2]; 3.05 nM in assay [3]; no less than 10000 nM in assay [4]; 75 nM in assay [5]; 2810 nM in assay [6].

Take `C[C@@H]1COCCN1c1cc(N2C3CCC2COC3)nc(-c2ccc(NC(=O)Nc3ccc(C(=O)N4CCN(C)CC4)cc3)cc2)n1` [1-(4-{4-[(3R)-3-methylmorpholin-4-yl]-6-(3-oxa-8-azabicyclo[3.2.1]oct-8-yl)pyrimidin-2-yl}phenyl)-3-{4-[(4-methylpiperazin-1-yl)carbonyl]phenyl}urea]: the IC50 in assay [2] is no more than 0.8 nM; in assay [3], 0.75 nM; in assay [4], 1130 nM; in assay [5], 0.8 nM; in assay [6] it was 78 nM.

As for `Oc1cccc(-c2nc(N3CCOCC3)c3oc4ncccc4c3n2)c1` [PI103, 3-(4-(4-morpholinyl)pyrido[3′,′:4,5]furo[3,2-d]pyrimidin-2-yl)phenol], the “activity against human tumor models” value in assay [1] (I.P. dosing in mice, U87MG, PC3, MDA-MB-468, MDA-MB-435, HCT 116, SKOV3, IGROV-1) is on record as “demonstrated activity”.

In the case of `O=C(Nc1ccc(-c2nc(NC3CCOCC3)cc(N3C4CCC3COC4)n2)cc1)Nc1cccnc1` [1-{4-[4-(3-oxa-8-azabicyclo[3.2.1]oct-8-yl)-6-(tetrahydro-2H-pyran-4-ylamino)pyrimidin-2-yl]phenyl}-3-pyridin-3-ylurea], the IC50 is 50 nM in assay [2]; 3.3 nM in assay [3]; no less than 10000 nM in assay [4]; 160 nM in assay [5]; 2680 nM in assay [6].

The values above are taken from patent US8835429B2, “Pyrimidine compounds, their use as mTOR kinase and Pl3 kinase inhibitors, and their syntheses” (Wyeth LLC, priority 2009, dated 2014).
